Source: US5506217A, “Phosphonates as anti-cancer agents” (The University of British Columbia, priority 1994, dated 1996)

Legend:
[1] = test system: HT-29 (human colorectal cancer); test: colonogenic cell survival assay; format: cell-based; details: 120 h, read-out: Colonies formed (% of control)
Method: (§1) Inhibition of colony formation in soft agar medium (colonogenic cell survival assay) is a more rigorous and direct measurement of cell kill or growth inhibition, and reflects the anti-cancer activity of the test compound. Briefly, tumor cells were cultured in petri dishes in methylcellulose, with or without a phosphonate test compound, and the number of colonies formed during a 5-day incubation period were counted.
(§2) The anti-cancer activity of the phosphonate compound of the formula shown above (compound VIII) was examined in human melanoma and colorectal tumor cell lines using the colonogenic cell survival assay (described above). RPMI-7951 (human melanoma) and HT-29 (human colorectal cancer) tumor cell lines were evaluated for their sensitivity to the cytotoxic activity of the above phosphonate (compound VIII).

[2] = test system: RPMI-7951 (human melanoma); test: colonogenic cell survival assay; format: cell-based; details: 120 h, read-out: Colonies formed (% of control)
Method: as §1, §2

[3] = test system: human melanoma cell line (RPMI-7951); test: RPMI-7951 melanoma growth and metastasis in nude mice, topical treatment; format: in vivo; details: topically twice a day, emulsion of 80 mg/mL; RPMI-7951 intradermal in nude mice
Method: Similar studies were also performed with a human melanoma cell line (RPMI-7951) grown in nude mice. Mice injected with RPMI-7951 cell line intradermally developed tumors. When the mice were treated topically, twice a day, with an emulsion of 80 mg/mL of the phosphonate compound of the formula shown above (compound VIII), the growth and metastasis of tumors were retarded by approximately 60%.

[4] = test system: 2008 (human ovarian cancer); test: cytotoxicity IC50 (3H-thymidine uptake, colonogenic cell survival and MTT assays); format: cell-based
Excerpt: (§3) A combination of ^3 H-Thymidine incorporation assay, colonogenic cell survival assay and MTT assay was used to determine cytotoxicity data of phosphonates in several mouse and human tumor cell lines.

[5] = test system: HT29 (human colon cancer); test: as above; format: cell-based; details: HT-29
Excerpt: as §3

[6] = test system: L1210 (mouse B-cell lymphoma); test: as above; format: cell-based
Excerpt: as §3

For `CCCCCCCCCCCCCCCCOCC(CCP(=O)([O-])OCC[N+](C)(C)C)OC` (centres unmarked) [compound VIII], the activity at 2.5 µM ([1]; 2.5 μM) was 74%, the activity at 5 µM ([1]; 5 μM) was 51% and the activity at 10 µM ([1]; 10 μM) was 22%. It also gave an activity at 20 µM ([1]; 20 μM) of 8%, an activity at 40 µM ([1]; 40 μM) of 0% and an activity at 2.5 µM ([2]; 2.5 μM) of 68%. For the same compound, the activity at 5 µM ([2]; 5 μM) was 43%, the activity at 10 µM ([2]; 10 μM) was 13% and the activity at 20 µM ([2]; 20 μM) was 3%. For the same compound, the activity at 40 µM ([2]; 40 μM) was 0%, the “retardation of growth and metastasis of tumors” value [3] was “approximately 60%” and the IC50 [4] was 27.8 µM. The IC50 [5] was 9 µM and the IC50 [6] was 5 µM.
